From US20090131494A1, “Non-Nucleoside Reverse Transcriptase Inhibitors” (priority 2005, published 2009)

The molecules below were run against T1, mutant HIV reverse transcriptase, K103N mutation (Human immunodeficiency virus type 1 group M subtype B, UniProt P04585, K690N) (assay: Analogous RT inhibition assay, K103N mutant). Details: RT with K103N mutation.
T1 construct: made in house
Type: biochemical
Experimental: Analogous assays were conducted substituting mutant HIV strains to determine the […] inhibition of compounds of the present invention against mutant HIV reverse transcriptase. In one strain the reverse transcriptase has the Y181C mutation and in the other strain the reverse transcriptase has the K103N mutation. The mutations were generated with the […] site-directed mutagenesis kit (Stratagene).

| SMILES | IC50 [µM] |
| --- | --- |
| CC(C)CCS(=O)(=O)c1c(C(=O)NCc2n[nH]c3ccccc23)[nH]c2ccc(Cl)cc12 [Example 40, 5-Chloro-N-(1H-indazol-3-ylmethyl)-3-[(3-methylbutyl)sulfonyl]-1H-indole-2-carboxamide] | < 2 |
| CC(C)CCS(=O)(=O)c1c(C(=O)NCc2nccn2C)[nH]c2ccc(Cl)cc12 [Example 39, 5-Chloro-3-[(3-methylbutyl)sulfonyl]-N-[(1-methyl-1H-imidazol-2-yl)methyl]-1-indole-2-carboxamid-indole-2-carboxamide] | < 2 |

Each molecule was assayed on acute HIV infection of T-lymphoid cells (assay: Assay for inhibition of HIV replication (spread assay)). Details: Human immunodeficiency virus 1, T-lymphoid, read-out: IC95, inhibition of HIV replication in spread assay.
Type: cell-based
Experimental: An assay for the inhibition of acute HIV infection of T-lymphoid cells (alternatively referred to herein as the “spread assay”) was conducted in accordance with Vacca, J. P. et al., Proc. Natl. Acad. Sci. USA 1994, 91: 4096.

| SMILES | IC95 [µM] |
| --- | --- |
| NC(=O)c1[nH]c2ccc(Cl)cc2c1S(=O)(=O)CC1CCCCC1 [Example 33, 5-chloro-3-[(cyclohexylmethyl)sulfonyl]-1H-indole-2-carboxamide] | ≤ 10 |
| CCOC(=O)c1[nH]c2ccc(Cl)cc2c1S(=O)(=O)CC1CCCCC1 [Example 22, ethyl 5-chloro-3-[(cyclohexylmethyl)sulfonyl]-1H-indole-2-carboxylate] | ≤ 10 |
| CCOC(=O)c1[nH]c2ccc(Cl)cc2c1SCC1CCCCC1 [Example 11, ethyl 5-chloro-3-[(cyclohexylmethyl)thio]-1H-indole-2-carboxylate] | ≤ 10 |

Same assay, conditions: Human immunodeficiency virus 1; T-lymphoid cells; tested up to 10 micromolar; read-out: IC95, inhibition of HIV replication in spread assay

| SMILES | IC95 [µM] |
| --- | --- |
| CCOC(=O)c1[nH]c2ccc(Cl)cc2c1S(=O)(=O)CC1CC1 [Example 17, ethyl 5-chloro-3-[(cyclopropylmethyl)sulfonyl]-1H-indole-2-carboxylate] | ≤ 10 |
| CCOC(=O)c1[nH]c2ccc(Cl)cc2c1SCC(F)(F)F [Example 2, ethyl 5-chloro-3-[(2,2,2-trifluoroethyl)thio]-1H-indole-2-carboxylate] | > 10 |
| NC(=O)c1[nH]c2ccc(Cl)cc2c1S(=O)(=O)C1CCC1 [Example 29, 5-chloro-3-(cyclobutylsulfonyl)-1H-indole-2-carboxamide] | ≤ 10 |
| CCOC(=O)c1[nH]c2ccc(Cl)cc2c1SCCCC(F)(F)F [Example 4, ethyl 5-chloro-3-[(4,4,4-trifluorobutyl)thio]-1H-indole-2-carboxylate] | > 10 |
| NC(=O)c1[nH]c2ccc(Cl)cc2c1S(=O)(=O)CC(F)(F)C(F)F [Example 38, 5-chloro-3-[(2,2,3,3-tetrafluoropropyl)sulfonyl]-1H-indole-2-carboxamide] | > 10 |
| CCOC(=O)c1[nH]c2ccc(Cl)cc2c1SC1CCC1 [Example 9, ethyl 5-chloro-3-(cyclobutylthio)-1H-indole-2-carboxylate] | ≤ 10 |
| CCOC(=O)c1[nH]c2ccc(Cl)cc2c1S(=O)(=O)CC1CCC1 [Example 13, Ethyl 5-chloro-3-(cyclobutylmethylsulfonyl)-1H-indole-2-carboxylate] | ≤ 10 |
| NC(=O)c1[nH]c2ccc(Cl)cc2c1S(=O)(=O)CCCC(F)(F)F [Example 25, 5-chloro-3-[(4,4,4-trifluorobutyl)sulfonyl]-1H-indole-2-carboxamide] | ≤ 10 |
| CCOC(=O)c1[nH]c2ccc(Cl)cc2c1S(=O)(=O)CCCC(F)(F)F [Example 15, ethyl 5-chloro-3-[(4,4,4,-trifluorobutyl)sulfonyl]-1H-indole-2-carboxylate] | > 10 |
| CCOC(=O)c1[nH]c2ccc(Cl)cc2c1SC1CCCC1 [Example 10, ethyl 5-chloro-3-(cyclopentylthio)-1H-indole-2-carboxylate] | ≤ 10 |
| CCOC(=O)c1[nH]c2ccc(Cl)cc2c1S(=O)(=O)C1CCCC1 [Example 20, ethyl 5-chloro-3-(cyclopentylsulfonyl)-1H-indole-2-carboxylate] | > 10 |
| NC(=O)c1[nH]c2ccc(Cl)cc2c1S(=O)(=O)C1CC1 [Example 26, 5-chloro-3-(cyclopropylsulfonyl)-1H-indole-2-carboxamide] | ≤ 10 |
| CCOC(=O)c1[nH]c2ccc(Cl)cc2c1S(=O)(=O)C1CC1 [Example 16, ethyl 5-chloro-3-(cyclopropylsulfonyl)-1H-indole-2-carboxylate] | > 10 |
| NC(=O)c1[nH]c2ccc(Cl)cc2c1S(=O)(=O)CCC(F)(F)F [Example 24, 5-chloro-3-[(3,3,3-trifluoropropyl)sulfonyl]-1H-indole-2-carboxamide] | ≤ 10 |
| NC(=O)c1[nH]c2ccc(Cl)cc2c1S(=O)(=O)C1CCCCC1 [Example 31, 5-chloro-3-(cyclohexylsulfonyl)-1H-indole-2-carboxamide] | ≤ 10 |
| NC(=O)c1[nH]c2ccc(Cl)cc2c1S(=O)(=O)C1CCCC1 [Example 30, 5-chloro-3-(cyclopentylsulfonyl)-1H-indole-2-carboxamide] | ≤ 10 |
| CCOC(=O)c1[nH]c2ccc(Cl)cc2c1SC1CCCCC1 [Example 12, Ethyl 5-chloro-3-(cyclohexylthio)-1H-indole-2-carboxylate] | ≤ 10 |

| SMILES | IC95 [µM] |
| --- | --- |
| NC(=O)c1[nH]c2ccc(Cl)cc2c1S(=O)(=O)C1C=CCCC1 (stereo not drawn) [Example 32, 5-chloro-3-(cyclohex-2-en-1-ylsulfonyl)-1H-indole-2-carboxamide] | ≤ 10 |
| CCOC(=O)c1[nH]c2ccc(Cl)cc2c1S(=O)(=O)C1CCCCC1 [Example 21, ethyl 5-chloro-3-(cyclohexylsulfonyl)-1H-indole-2-carboxylate] | > 10 |
| NC(=O)c1[nH]c2ccc(Cl)cc2c1S(=O)(=O)CC1CCC1 [Example 23, 5-Chloro-3-(cyclobutylmethylsulfonyl)-1H-indole-2-carboxamide] | ≤ 10 |
| CCOC(=O)c1[nH]c2ccc(Cl)cc2c1S(=O)(=O)CCC1CC1 [Example 18, ethyl 5-chloro-3-[(2-cyclopropylethyl)sulfonyl]-1H-indole-2-carboxylate] | ≤ 10 |
| NC(=O)c1[nH]c2ccc(Cl)cc2c1S(=O)(=O)CCC1CC1 [Example 28, 5-chloro-3-[(2-cyclopropylethyl)sulfonyl]-1H-indole-2-carboxamide] | ≤ 10 |
| CCOC(=O)c1[nH]c2ccc(Cl)cc2c1S(=O)(=O)C1CCC1 [Example 19, ethyl 5-chloro-3-(cyclobutylsulfonyl)-1H-indole-2-carboxylate] | > 10 |
| NC(=O)c1[nH]c2ccc(Cl)cc2c1S(=O)(=O)CC1CC(F)(F)C1(F)F (stereo not drawn) [Example 37] | ≤ 10 |
| CCOC(=O)c1[nH]c2ccc(Cl)cc2c1SCCC1CC1 [Example 8, ethyl 5-chloro-3-[(2-cyclopropylethyl)thio]-1H-indole-2-carboxylate] | ≤ 10 |
| CC(CC(F)(F)F)S(=O)(=O)c1c(C(N)=O)[nH]c2ccc(Cl)cc12 (stereo not drawn) [Example 34, 5-chloro-3-[(3,3,3-trifluoro-1-methylpropyl)sulfonyl]-1H-indole-2-carboxamide] | ≤ 10 |
| CCOC(=O)c1[nH]c2ccc(Cl)cc2c1SCCC(F)(F)F [Example 3, ethyl 5-chloro-3-[(3,3,3-trifluoropropyl)thio]-1H-indole-2-carboxylate] | ≤ 10 |
| CC(C)CCS(=O)(=O)c1c(C(=O)NCc2n[nH]c3ccccc23)[nH]c2ccc(Cl)cc12 [Example 40, 5-Chloro-N-(1H-indazol-3-ylmethyl)-3-[(3-methylbutyl)sulfonyl]-1H-indole-2-carboxamide] | ≤ 10 |
| CC(C)CCS(=O)(=O)c1c(C(=O)NCc2nccn2C)[nH]c2ccc(Cl)cc12 [Example 39, 5-Chloro-3-[(3-methylbutyl)sulfonyl]-N-[(1-methyl-1H-imidazol-2-yl)methyl]-1-indole-2-carboxamid-indole-2-carboxamide] | ≤ 10 |
| CCOC(=O)c1[nH]c2ccc(Cl)cc2c1SCC(F)(F)C(F)(F)F [Example 5, ethyl 5-chloro-3-[(2,2,3,3,3-pentafluoropropyl)thio]-1H-indole-2-carboxylate] | ≤ 10 |
| CCOC(=O)c1[nH]c2ccc(Cl)cc2c1SC1CC1 [Example 6, ethyl 5-chloro-3-(cyclopropylthio)-1H-indole-2-carboxylate] | > 10 |
| CCOC(=O)c1[nH]c2ccc(Cl)cc2c1SCC1CCC1 [Example 1, Ethyl 5-chloro-3-(cyclobutylmethylthio)-1H-indole-2-carboxylate] | ≤ 10 |
| NC(=O)c1[nH]c2ccc(Cl)cc2c1S(=O)(=O)CC1CC1 [Example 27, 5-chloro-3-[(cyclopropylmethyl)sulfonyl]-1H-indole-2-carboxamide] | ≤ 10 |
| CCOC(=O)c1[nH]c2ccc(Cl)cc2c1S(=O)(=O)CCC(F)(F)F [Example 14, ethyl 5-chloro-3-[(3,3,3-trifluoropropyl)sulfonyl]-1H-indole-2-carboxylate] | > 10 |
